According to EP3057950B1, “PHENYL LINKED QUINOLINYL MODULATORS OF ROR-GAMMA-T” (Janssen Pharmaceutica NV, priority 2013, dated 2015):
Counter-ions that a name gives are not always drawn.

Tests used:
[1] = target: T1, wild type human RORγt LBD (Homo sapiens, UniProt P51449); assay: RORγt Reporter Assay (GAL4-RORγt LBD luciferase in HEK293T cells); format: cell-based; settings: HEK293T cells; for IC50: compounds for 24 hours, read-out: RORγt reporter Assay, IC50; for inhibition at 6 µM: HEK-293T, read-out: RORγt reporter Assay, % inhibition @ 6 µM, @ 6 µM
T1 construct: expressed in transfected cells; host or cells: HEK293T
T1 sequence (P51449 269-508 limits assumed): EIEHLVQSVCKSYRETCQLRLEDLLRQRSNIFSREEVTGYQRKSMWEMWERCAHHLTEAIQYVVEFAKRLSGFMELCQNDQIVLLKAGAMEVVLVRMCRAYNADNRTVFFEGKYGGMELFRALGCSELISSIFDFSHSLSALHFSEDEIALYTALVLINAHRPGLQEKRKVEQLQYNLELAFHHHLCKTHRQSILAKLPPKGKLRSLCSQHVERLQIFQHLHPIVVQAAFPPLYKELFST
Procedure, shortened: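 HEK293T cells transiently co-transfected with GAL4-DBD–human RORγt LBD (or AF2 mutant) and GAL4-responsive firefly luciferase reporter; renilla luciferase normalised transfection and viability. Compounds applied 24 h in 5% lipid-reduced FCS; firefly/renilla ratio plotted against concentration.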

[2] = system: IL-17 production by CD4 T cells; assay: Human Th17 Assay (IL-17 production by CD4 T cells under Th17 differentiation conditions); format: cell-based; settings: 3 days, IL-17 in supernatant
Method: The human Th17 assay tests the effect of RORγt modulatory compounds on IL-17 production by CD4 T cells under conditions which favor Th17 differentiation. Total CD4^+ T cells were isolated from the peripheral blood mononuclear cells (PBMC) of healthy donors using a CD4^+ T cell isolation kit II, following the manufacturer's instructions (Miltenyi Biotec). […] 50 µL of compound at titrated concentrations in DMSO were added into each well at final DMSO concentration at 0.2%. Cells were incubated for 1 hour, then 50 µL of Th17 cell differentiation medium was added to each well. The final concentrations of antibodies and cytokines (R&D Systems) in differentiation medium were: 3x10^6/mL anti-CD3/CD28 beads (prepared using human T cell activation/expansion kit, Miltenyi Biotec), 10 µg/mL anti-IL4, 10 µg/mL anti-IFNγ, 10 ng/mL […], 10 ng/mL IL23, 50 ng/mL IL6, 3 ng/mL TGFβ and 20 U/mL IL2. Cells were cultured at 37 °C and 5% CO2 for 3 days. Supernatants were collected and the accumulated IL-17 in culture was measured by using MULTI-SPOT® Cytokine Plate following manufacture's instruction (Meso Scale Discovery). The plate was read using Sector Imager 6000, and IL-17 concentration was extrapolated from the standard curve. The IC50s were determined by GraphPad.

[3] = target: T2, wild type human RORγt ligand binding domain (RORγt LBD) (Homo sapiens, UniProt P51449); assay: RORγt ThermoFluor® Assay (thermal shift, binding affinity); settings: pH 7.0, estimated from concentration response curves
T2 construct: His-tag (N); TurboTEV protease cleavage site (ENLYFQG) (N); made in house; host or cells: E. coli (pHIS1, modified pET expression vector)
T2 sequence (P51449 269-508 limits assumed): T1 sequence (P51449 269-508 limits assumed)
Procedure, shortened: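 Thermal shift assay on 0.065 mg/mL RORγt LBD with 60 µM 1,8-ANS in 100 mM Hepes pH 7.0, 10 mM NaCl, 2.5 mM GSH, 0.002% Tween-20. Heated at 1 °C/min, fluorescence read at 500 nm.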

COc1nc2ccc(C(O)(c3cncn3C)C3CCN(C(C)=O)CC3)cc2c(Cl)c1-c1cccc(C(F)(F)F)c1 (single isomer, unassigned) [Example 1b, 1-(4-((4-Chloro-2-methoxy-3-(3-(trifluoromethyl)phenyl)quinolin-6-yl)(hydroxy)(1-methyl-1H-imidazol-5-yl)methyl)piperidin-1-yl)ethanone]
IC50 [1]: 160 nM | inhibition at 6 µM [1]: 89% | IC50 ([2]; Homo sapiens, CD4+ T, 72 h): 400 nM | Kd [3]: 130 nM

CC(=O)N1CCC(C(O)(c2ccccc2)c2cc(C)c3nc(C#N)c(-c4ccccc4)c(C#N)c3c2)CC1 (single isomer, unassigned) [Example 21c, 6-((1-Acetylpiperidin-4-yl)(hydroxy)(phenyl)methyl)-8-methyl-3-phenylquinoline-2,4-dicarbonitrile]
RORγt reporter Assay, % inhibition @ 6 µM [1]: 96% | IC50 [1]: 190 nM | IC50 ([2]; Homo sapiens, CD4+ T, 72 h): 180 nM | Kd [3]: 110 nM

Cn1cncc1C(O)(c1ccc2nc(C(F)(F)F)c(-c3ccccc3)c(Cl)c2c1)c1ccccn1 (stereo not drawn) [Example 61, (4-Chloro-3-phenyl-2-(trifluoromethyl)quinolin-6-yl)(1-methyl-1H-imidazol-5-yl)(pyridin-2-yl)methanol•TFA]
IC50 [1]: 130 nM | inhibition at 6 µM [1]: 105% | IC50 ([2]; Homo sapiens, CD4+ T, 72 h): 480 nM | Kd [3]: 450 nM

COc1nc2ccc(C(O)(c3cnnn3C)c3cnc(C)n3C)cc2c(Cl)c1-c1ccccc1 (single isomer, unassigned) [Example 41c, (4-Chloro-2-methoxy-3-phenylquinolin-6-yl)(1,2-dimethyl-1H-imidazol-5-yl)(1-methyl-1H-1,2,3-triazol-5-yl)methanol]
RORγt reporter Assay, % inhibition @ 6 µM [1]: 102% | IC50 [1]: 270 nM | IC50 [2]: 210 nM | Kd [3]: 6.5 nM

COc1c(-c2ccccc2)c(C(F)(F)F)nc2ccc(C(O)(c3ccc(Cl)cc3)c3cncn3C)cc12 (single isomer, unassigned) [Example 33c, (4-Chlorophenyl)(4-methoxy-3-phenyl-2-(trifluoromethyl)quinolin-6-yl)(1-methyl-1H-imidazol-5-yl)methanol]
RORγt reporter Assay, % inhibition @ 6 µM [1]: 99% | IC50 [1]: 130 nM | IC50 ([2]; Homo sapiens, CD4+ T, 72 h): 290 nM | Kd [3]: 77 nM

COc1nc2ccc(C(O)(c3cnnn3C)c3cnc(C)n3C)cc2c(Cl)c1-c1ccccc1 (single isomer, unassigned) [Example 41b, (4-Chloro-2-methoxy-3-phenylquinolin-6-yl)(1,2-dimethyl-1H-imidazol-5-yl)(1-methyl-1H-1,2,3-triazol-5-yl)methanol]
IC50 [1]: 8.6 nM | inhibition at 6 µM [1]: 102% | IC50 [2]: 7 nM | Kd [3]: 1.4 nM

COc1nc2ccc(C(O)(c3cncn3C)C3CCN(C(C)=O)CC3)cc2c(C#N)c1-c1cccc(C(F)(F)F)c1 (single isomer, unassigned) [Example 2b, 6-((1-Acetylpiperidin-4-yl)(hydroxy)(1-methyl-1H-imidazol-5-yl)methyl)-2-methoxy-3-(3-(trifluoromethyl)phenyl)quinoline-4-carbonitrile]
IC50 [1]: 200 nM | inhibition at 6 µM [1]: 91% | IC50 [2]: 2900 nM | Kd [3]: 130 nM

COc1nc2ccc(C(O)(c3cncn3C)C3CCN(C(C)=O)CC3)cc2c(C#N)c1-c1cccc(C(F)(F)F)c1 (single isomer, unassigned) [Example 2c, 6-((1-Acetylpiperidin-4-yl)(hydroxy)(1-methyl-1H-imidazol-5-yl)methyl)-2-methoxy-3-(3-(trifluoromethyl)phenyl)quinoline-4-carbonitrile]
RORγt reporter Assay, % inhibition @ 6 µM [1]: 95% | IC50 [1]: 170 nM | IC50 [2]: 670 nM | Kd [3]: 140 nM

COc1nc2ccc(C(O)(c3ccc(C(F)(F)F)nc3)c3cncn3C)cc2c(Cl)c1-c1cncnc1 (stereo not drawn) [Example 10, (4-Chloro-2-methoxy-3-pyrimidin-5-ylquinolin-6-yl)(1-methyl-1H-imidazol-5-yl)[6-(trifluoromethyl)pyridin-3-yl]methanol•TFA]
IC50 [1]: 320 nM | inhibition at 6 µM [1]: 89% | IC50 ([2]; Homo sapiens, CD4+ T, 72 h): 1500 nM | Kd [3]: 200 nM

CC(=O)N1CCC(C(O)(c2ccc3nc(C(F)(F)F)c(-c4ccccc4)c(Cl)c3c2)c2cncn2C)CC1 (single isomer, unassigned) [Example 34c, 1-(4-((4-Chloro-3-phenyl-2-(trifluoromethyl)quinolin-6-yl)(hydroxy)(1-methyl-1H-imidazol-5-yl)methyl)piperidin-1-yl)ethanone]
RORγt reporter Assay, % inhibition @ 6 µM [1]: 96% | IC50 [1]: 270 nM | IC50 ([2]; Homo sapiens, CD4+ T, 72 h): 260 nM | Kd [3]: 100 nM

OC(c1ccccc1)(c1ccncc1)c1ccc2nc(Cl)c(-c3ccccc3Cl)c(Cl)c2c1 (stereo not drawn) [Example 73, (2,4-Dichloro-3-(2-chlorophenyl)quinolin-6-yl)(phenyl)(pyridin-4-yl)methanol]
IC50 [1]: 700 nM | inhibition at 6 µM [1]: 80% | IC50 ([2]; Homo sapiens, CD4+ T, 72 h): ~6000 nM | Kd [3]: 20000 nM

Cc1nc(C)c(C(O)(c2ccc3nc(Cl)c(-c4ccccc4)c(Cl)c3c2)c2cncn2C)s1 (stereo not drawn) [Example 68, (2,4-Dichloro-3-phenylquinolin-6-yl)(2,4-dimethylthiazol-5-yl)(1-methyl-1H-imidazol-5-yl)methanol]
IC50 ([2]; 72 h): 20 nM

COc1c(-c2ccccc2)c(Cl)nc2ccc(C(O)(c3cnnn3C)c3cnc(C)n3C)cc12 (single isomer, unassigned) [Example 40c, (2-Chloro-4-metboxy-3-phenylquinolin-6-yl)(1,2-dimethyl-1H-imidazol-5-yl)(1-methyl-1H-1,2,3-triazol-5-yl)methanol]
RORγt reporter Assay, % inhibition @ 6 µM [1]: 103% | IC50 ([2]; Homo sapiens, CD4+ T, 72 h): 210 nM

CC(=O)N1CCC(C(O)(c2ccc(C(F)(F)F)nc2)c2cc(C)c3nc(C#N)c(-c4ccccc4)c(C#N)c3c2)CC1 (single isomer, unassigned) [Example 27b, 6-((1-Acetylpiperidin-4-yl)(hydroxy)(6-(trifluoromethyl)pyridin-3-yl)methyl)-8-methyl-3-phenylquinoline-2,4-dicarbonitrile]
IC50 [1]: ~4000 nM | inhibition at 6 µM [1]: 80% | Kd [3]: 15000 nM

COc1nc2ccc(C(O)(c3ccc(C(F)(F)F)nc3)c3cncn3C)cc2c(Cl)c1-c1ccc(NS(C)(=O)=O)cc1 (stereo not drawn) [Example 17, N-[4-(4-Chloro-6-{hydroxy(1-methyl-1H-imidazol-5-yl)[6-(trifluoromethyl)pyridin-3-yl]methyl}-2-methoxyquinolin-3-yl)phenyl]methamesulfonamide•TFA]
IC50 [1]: 530 nM | inhibition at 6 µM [1]: 87% | Kd [3]: 26 nM

COc1nc2c(C)cc(C(O)(c3ccc(C(F)(F)F)nc3)c3cncn3C)cc2c(Cl)c1-c1ccc(OC(F)(F)F)cc1 (stereo not drawn) [Example 63, (4-Chloro-2-methoxy-8-methyl-3-(4-(trifluoromethoxy)phenyl)quinolin-6-yl)(1-methyl-1H-imidazol-5-yl)(6-(trifluoromethyl)pyridin-3-yl)methanol]
IC50 [1]: > 6000 nM | inhibition at 6 µM [1]: 26% | Kd [3]: 9.3 nM

CN(C)c1nc2ccc(C(c3ccc(Cl)cc3)c3cncn3C)cc2c(Cl)c1-c1ccccc1 (stereo not drawn) [Example 71, 4-Chloro-6-((4-chlorophenyl)(1-methyl-1H-imidazol-5-yl)methyl)-N,N-dimethyl-3-phenylquinolin-2-amine]
IC50 [1]: 1400 nM | inhibition at 6 µM [1]: 84% | Kd [3]: 2200 nM

COc1nc2ccc(C(O)(c3ncccn3)c3cncn3C)cc2c(OC)c1-c1ccccc1 (stereo not drawn) [Example 88, (2,4-Dimethoxy-3-phenylquinolin-6-yl)(1-methyl-1H-imidazol-5-yl)(pyrimidin-2-yl)methanol]
IC50 [1]: > 6000 nM | inhibition at 6 µM [1]: 32% | Kd [3]: 20000 nM

Cn1cncc1C(O)(c1ccc(Cl)cc1)c1ccc2nc(Cl)c(-c3ccccc3)c(Cl)c2c1 (stereo not drawn) [Example 65, (4-Chlorophenyl)(2,4-dichloro-3-phenylquinolin-6-yl)(1-methyl-1H-imidazol-5-yl)methanol]
IC50 ([2]; 72 h): 1800 nM
